Measured values: US20220184083A1, “USE OF AN AGENT CAPABLE OF INHIBITING THE ACTIVATION OF MAIT CELLS FOR THE TREATMENT OF OBESITY AND OBESITY-RELATED DISORDERS” (INSERM (INSTITUT NATIONAL DE LA SANTÉ ET DE LA RECHERCH …, priority 2019, published 2022)

Experiments:
Type in all cases: in vivo
MR1−/− mice = test: ITT and OGTT at 12 weeks of HFD in MR1−/− mice treated with Ac-6-FP; conditions: Ac-6-FP treated vs controls
From the text: FIG. 5: Insulin Tolerance Test (ITT) and Oral Glucose Tolerance Test (OGTT) at 12 weeks of High Fat Diet (HFD) in MR1−/− Ac-6-FP treated mice and their respective controls.

Vαl9^+/− mice fed HFD = test: ITT, OGTT and weight gain in Vαl9+/− mice on high fat diet treated with Ac-6-FP
From the text: FIG. 2: Ac-6-FP treatment during HFD improved metabolic parameters. Vαl9^+/− mice fed during 6 weeks of HFD were then giving water containing 50 nm/ml of Ac-6-FP (Acetyl-6-formylpterin) (n=8) or PBS (n=7) for 8 weeks and IP injected, twice a week, 50 nm of Ac-6-FP or PBS. (A) ITT and OGTT in Vαl9^+/− Ac-6-FP-treated mice and Vαl9^+/− control mice. (B) Percentage of weight gain of Ac-6-FP-treated Vαl9^+/− mice and Vαl9^+/− control mice.

[1] = test system: visceral adipose tissue macrophages; test: Frequency of M1 and M2 macrophages in visceral adipose tissue; conditions: Vαl9+/− mice, treated vs non-treated
From the text: FIG. 4: Frequency of MI-macrophages (CD206−CD11c+) and M2-macrophages (CD206+CD11c−) among total macrophages and M1/M2 ratio in visceral adipose tissue from Vαl9+/− Ac-6-FP treated mice and their controls.

MAIT cells = test: Intracellular staining of MAIT cells for IL-17A in ileum and visceral adipose tissue; conditions: Vα19+/− mice, Ac-6-FP treated vs control (PBS)
From the text: FIG. 3: Intra cellular staining of MAIT cells for IL-17A. Frequency of IL-17A positive MAIT cells in ileum and visceral adipose tissue from Vαl9+/− control (PBS) and Vαl9+/− Ac-6-FP treated mice.

For `CC(=O)Nc1nc2ncc(C=O)nc2c(=O)[nH]1` [Ac-6-FP, acetyl-6-formylpterin], the “glucose tolerance (OGTT)” value (MR1−/− mice) was “did not have any effect”, the “insulin sensitivity (ITT)” value (MR1−/− mice) was “did not have any effect” and the insulin sensitivity (Vαl9^+/− mice fed HFD; Ac-6-FP treatment during high fat diet (HFD), obese mice) was “improved”. For the same molecule, the “metabolic parameters (ITT, OGTT, percentage of weight gain)” value (Vαl9^+/− mice fed HFD; Vαl9+/− mice, 6 weeks HFD, then water containing 50 nm/ml Ac-6-FP for 8 weeks plus IP 50 nm twice a week, vs PBS) was “improved”, the “frequency of M1-like macrophages (pro-inflammatory, CD206−CD11c+)” value [1] was “decreased frequency” and the “frequency of M2-like macrophages (anti-inflammatory, CD206+CD11c−)” value [1] was “increased frequency”. For the same molecule, the “production of IL-17A by MAIT cells” value (MAIT cells; ileum) was “decreased production” and the “production of IL-17A by MAIT cells” value (MAIT cells; visceral adipose tissue) was “decreased production”.
